This is an account of results in patent US12227488B2, “Small molecule degraders of Helios and methods of use” (DANA-FARBER CANCER INSTITUTE, INC., priority 2018, dated 2025).

For one test, the target named is T1, IKZF1 (Homo sapiens, UniProt Q13422).
T1 construct: expressed in transfected cells; host or cells: Flp-In 293
The test can be described thus: Cellular degradation assay, eGFP-IKZF1Δ fusion with mCherry reporter in Flp-In 293 cells. In kind it is cell-based. The conditions noted are these: 5 h incubation, n=1. In outline: (§1)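 Flp-In 293 cells stably expressing eGFP-tagged degron fusions with P2A-mCherry reporter were treated with compound titrations (0.5% DMSO) for 5 hours. Imaging quantified GFP-positive/mCherry-positive cell fraction per well; DC50 at 5 h from nonlinear variable-slope fit.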

Another test deals with IKZF2. Kind of test: Cellular degradation assay, eGFP-IKZF2Δ fusion with mCherry reporter in Flp-In 293 cells. In kind it is cell-based. The conditions noted are these: 5 h incubation, n=1. In outline: as §1
The target of the next test is GSPT1 (Homo sapiens, UniProt P15170+Q96SW2). Kind of test: Cellular degradation assay, eGFP-GSPT1 fusion with mCherry reporter in Flp-In 293 cells. In kind it is cell-based. The arrangement: expressed in transfected cells; host or cells: Flp-In 293. To be noted: 5 h incubation, n=1. In outline:
as §1

The target of the next test is T2, CRBN and Helios (IKZF2) (Homo sapiens, UniProt Q96SW2+Q9UKS7).
T2 construct: His (N); Strep (N)
The test can be described thus: TR-FRET dimerization assay (CRBN-IKZF2 ternary complex formation). The class given is binding. To be noted: n=1. In outline: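 BODIPY-labeled DDB1ΔB-CRBN and in vitro biotinylated IKZF2 were treated with increasing compound concentrations plus tracer Terbium-Streptavidin and incubated 15 min at rt. Recruitment was quantified as the 520/490 nm TR-FRET ratio; values are single measurements (n=1), each averaged from at least three technical replicates.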

A further test addresses T3, SALL4 ZNF1-2 (Homo sapiens, UniProt Q96SW2+Q9UJQ4).
T3 construct: IKZF1Δ, IKZF2Δ, GSPT1 and SALL4 ZnF1-2 were subcloned; expressed in transfected cells; host or cells: Flp-In 293
The test can be described thus: Cellular degradation assay, eGFP-SALL4 ZnF1-2 fusion with mCherry reporter in Flp-In 293 cells. In kind it is cell-based. The conditions noted are these: 5 h incubation, n=1. In outline:
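Flp-In 293 cells stably expressing eGFP-SALL4 ZnF1-2 fusion plus mCherry reporter were treated with compound titrations (0.5% DMSO) for 5 hours. Imaging at 488/561 nm gave, per well, the fraction of GFP-positive among mCherry-positive cells.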

[1] abbreviates: compound concentration 2.00E−05.
Setting [2] is: compound concentration 2.00E−06.
Where [3] appears, read: compound concentration 2.00E−07.
Where [4] appears, read: compound concentration 6.6667E−05.
Where [5] appears, read: compound concentration 6.6667E−06.
The mark [6] stands for this setting: compound concentration 6.6667E−07 (667 nM).

T2 sequence (Q96SW2 whole entry): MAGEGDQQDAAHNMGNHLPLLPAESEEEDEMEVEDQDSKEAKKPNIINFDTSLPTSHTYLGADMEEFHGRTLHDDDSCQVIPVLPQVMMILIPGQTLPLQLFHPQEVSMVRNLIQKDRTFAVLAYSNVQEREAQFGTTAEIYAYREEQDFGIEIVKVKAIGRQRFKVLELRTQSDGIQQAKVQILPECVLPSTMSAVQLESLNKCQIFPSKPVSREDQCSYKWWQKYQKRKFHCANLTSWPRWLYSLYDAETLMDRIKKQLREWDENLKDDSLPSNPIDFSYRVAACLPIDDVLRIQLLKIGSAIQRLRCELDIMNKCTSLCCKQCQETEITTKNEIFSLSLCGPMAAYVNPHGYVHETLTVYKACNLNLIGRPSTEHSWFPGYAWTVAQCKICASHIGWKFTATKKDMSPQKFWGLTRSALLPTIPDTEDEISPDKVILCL
T2 sequence (Q9UKS7 whole entry): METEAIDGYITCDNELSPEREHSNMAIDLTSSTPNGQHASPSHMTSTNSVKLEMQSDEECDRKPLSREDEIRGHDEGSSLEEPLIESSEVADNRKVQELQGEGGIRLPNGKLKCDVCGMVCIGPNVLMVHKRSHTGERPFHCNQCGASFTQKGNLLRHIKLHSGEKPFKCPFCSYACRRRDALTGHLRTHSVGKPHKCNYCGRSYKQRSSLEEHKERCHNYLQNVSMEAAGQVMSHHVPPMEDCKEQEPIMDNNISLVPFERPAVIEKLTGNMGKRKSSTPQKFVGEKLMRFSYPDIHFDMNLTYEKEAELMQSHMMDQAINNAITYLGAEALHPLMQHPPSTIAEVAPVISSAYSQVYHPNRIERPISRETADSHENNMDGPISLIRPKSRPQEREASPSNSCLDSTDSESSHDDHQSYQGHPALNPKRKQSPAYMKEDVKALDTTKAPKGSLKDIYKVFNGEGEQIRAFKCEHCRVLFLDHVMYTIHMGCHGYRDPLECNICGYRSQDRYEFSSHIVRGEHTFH
GSPT1, sequence (P15170 whole entry, the tested form may be a part): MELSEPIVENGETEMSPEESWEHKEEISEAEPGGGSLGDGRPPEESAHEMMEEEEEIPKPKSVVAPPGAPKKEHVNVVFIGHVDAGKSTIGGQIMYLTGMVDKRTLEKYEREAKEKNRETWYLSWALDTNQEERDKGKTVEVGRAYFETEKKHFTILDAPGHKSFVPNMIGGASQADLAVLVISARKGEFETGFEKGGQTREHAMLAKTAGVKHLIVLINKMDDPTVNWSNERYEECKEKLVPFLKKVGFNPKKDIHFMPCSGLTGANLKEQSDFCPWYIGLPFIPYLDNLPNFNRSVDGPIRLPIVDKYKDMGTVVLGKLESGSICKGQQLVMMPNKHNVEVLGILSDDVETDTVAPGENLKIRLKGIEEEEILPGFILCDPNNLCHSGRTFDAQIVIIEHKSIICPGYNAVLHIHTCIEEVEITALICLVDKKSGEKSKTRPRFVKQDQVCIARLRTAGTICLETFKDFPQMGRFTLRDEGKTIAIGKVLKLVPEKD
GSPT1, sequence (Q96SW2 whole entry, the tested form may be a part): as the sequence (Q96SW2 whole entry) above
GSPT1, sequence (Q16531 whole entry partner, the tested form may be a part): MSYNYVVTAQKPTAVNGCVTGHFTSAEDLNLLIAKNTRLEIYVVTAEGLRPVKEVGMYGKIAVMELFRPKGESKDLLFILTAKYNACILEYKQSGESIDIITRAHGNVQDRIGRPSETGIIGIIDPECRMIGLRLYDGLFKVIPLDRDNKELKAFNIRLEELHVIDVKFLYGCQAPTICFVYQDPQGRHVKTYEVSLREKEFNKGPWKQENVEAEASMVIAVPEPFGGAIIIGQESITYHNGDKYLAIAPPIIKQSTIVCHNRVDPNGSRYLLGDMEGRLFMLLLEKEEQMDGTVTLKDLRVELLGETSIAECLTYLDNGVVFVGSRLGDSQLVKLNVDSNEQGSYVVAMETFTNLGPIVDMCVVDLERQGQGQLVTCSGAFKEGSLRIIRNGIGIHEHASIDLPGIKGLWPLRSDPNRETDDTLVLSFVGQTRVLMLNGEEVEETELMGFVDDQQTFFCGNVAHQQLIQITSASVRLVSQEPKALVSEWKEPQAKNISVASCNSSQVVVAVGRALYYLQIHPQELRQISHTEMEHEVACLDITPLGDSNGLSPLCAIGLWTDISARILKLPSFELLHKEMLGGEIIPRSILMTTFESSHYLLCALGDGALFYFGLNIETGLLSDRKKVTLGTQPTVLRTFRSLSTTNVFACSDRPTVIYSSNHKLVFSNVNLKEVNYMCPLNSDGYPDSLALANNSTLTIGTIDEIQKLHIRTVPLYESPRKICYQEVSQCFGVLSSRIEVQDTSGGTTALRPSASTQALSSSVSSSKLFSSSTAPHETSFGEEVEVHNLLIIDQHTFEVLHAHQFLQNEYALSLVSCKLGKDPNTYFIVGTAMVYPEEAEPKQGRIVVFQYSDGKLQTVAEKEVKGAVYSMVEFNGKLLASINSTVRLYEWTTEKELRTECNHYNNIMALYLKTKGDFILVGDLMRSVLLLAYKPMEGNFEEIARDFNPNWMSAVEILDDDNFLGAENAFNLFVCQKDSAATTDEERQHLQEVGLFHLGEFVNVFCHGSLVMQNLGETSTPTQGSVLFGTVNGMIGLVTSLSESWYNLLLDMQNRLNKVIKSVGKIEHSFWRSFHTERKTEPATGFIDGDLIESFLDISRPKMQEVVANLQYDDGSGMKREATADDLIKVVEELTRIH
T3 sequence (Q9UJQ4 378-438 limits assumed): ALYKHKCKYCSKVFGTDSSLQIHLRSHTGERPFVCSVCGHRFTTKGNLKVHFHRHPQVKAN
T3 sequence (Q96SW2 whole entry): as the sequence (Q96SW2 whole entry) above
T3 sequence (Q16531 whole entry partner): as the sequence (Q16531 whole entry partner, the tested form may be a part) above
T1 sequence (Q13422 83-213 isoform Q13422-7 limits assumed): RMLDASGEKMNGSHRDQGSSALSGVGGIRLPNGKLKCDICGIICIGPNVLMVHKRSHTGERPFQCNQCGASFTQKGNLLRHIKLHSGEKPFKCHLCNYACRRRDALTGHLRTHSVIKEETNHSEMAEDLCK
T1 sequence (Q96SW2 whole entry partner): as the sequence (Q96SW2 whole entry) above
T1 sequence (Q16531 2-1140 partner limits assumed): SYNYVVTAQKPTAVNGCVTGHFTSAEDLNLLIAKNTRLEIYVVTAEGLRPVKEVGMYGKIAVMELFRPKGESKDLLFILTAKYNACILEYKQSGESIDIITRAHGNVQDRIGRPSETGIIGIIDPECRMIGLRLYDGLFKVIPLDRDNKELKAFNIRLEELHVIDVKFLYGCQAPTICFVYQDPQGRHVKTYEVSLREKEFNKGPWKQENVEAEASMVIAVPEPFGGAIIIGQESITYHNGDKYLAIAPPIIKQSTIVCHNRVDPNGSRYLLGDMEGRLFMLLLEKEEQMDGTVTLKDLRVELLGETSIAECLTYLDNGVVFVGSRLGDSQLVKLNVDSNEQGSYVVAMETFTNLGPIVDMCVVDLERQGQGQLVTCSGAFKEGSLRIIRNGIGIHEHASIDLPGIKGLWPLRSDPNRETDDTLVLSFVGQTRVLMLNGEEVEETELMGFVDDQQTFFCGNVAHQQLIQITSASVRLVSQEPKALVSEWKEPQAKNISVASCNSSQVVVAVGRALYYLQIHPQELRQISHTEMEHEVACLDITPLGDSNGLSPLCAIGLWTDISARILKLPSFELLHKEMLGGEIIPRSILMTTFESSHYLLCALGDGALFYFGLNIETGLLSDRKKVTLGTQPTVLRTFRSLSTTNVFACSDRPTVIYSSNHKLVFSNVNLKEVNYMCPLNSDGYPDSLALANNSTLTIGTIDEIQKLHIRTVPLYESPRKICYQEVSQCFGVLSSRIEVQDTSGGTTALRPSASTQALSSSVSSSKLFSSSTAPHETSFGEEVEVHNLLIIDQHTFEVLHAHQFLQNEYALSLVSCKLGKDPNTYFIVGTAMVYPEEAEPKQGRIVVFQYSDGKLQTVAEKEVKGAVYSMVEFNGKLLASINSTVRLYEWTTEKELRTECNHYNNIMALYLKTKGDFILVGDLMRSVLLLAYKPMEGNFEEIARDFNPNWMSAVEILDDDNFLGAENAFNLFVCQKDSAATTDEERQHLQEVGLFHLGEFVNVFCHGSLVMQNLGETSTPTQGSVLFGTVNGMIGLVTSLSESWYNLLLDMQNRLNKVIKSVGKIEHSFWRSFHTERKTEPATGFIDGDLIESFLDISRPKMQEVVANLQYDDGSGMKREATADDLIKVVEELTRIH

In the case of `O=C1CCC(N2C(=O)C=C(Nc3cccc(Cl)c3)C2=O)C(=O)N1` (stereo not drawn) [Compound 26, 3-(3-((3-chlorophenyl)amino)-2,5-dioxo-2,5-dihydro-1H-pyrrol-1-yl)piperidine-2,6-dione], the “IKZF1 GFP/RFP Relative Abundance” value turned out to be 0.290 at IKZF1 (setting [1]), 0.381 on IKZF1 (setting [2]) and 0.478 at IKZF1 (setting [3]). The “IKZF2 GFP/RFP Relative Abundance” value is listed as 0.913 in the test on IKZF2 (setting [1]), 0.929 with IKZF2 (setting [2]) and 0.981 in the test with IKZF2 (setting [3]). Besides, the “GSPT1 GFP/RFP Relative Abundance” value amounted to 0.952 at GSPT1 (setting [1]), 1.036 at GSPT1 (setting [2]) and 1.107 at GSPT1 (setting [3]). Besides, the “TR-FRET-IKZF2 (Normalized to CC-885)” value was found to be 0.365 at CRBN and Helios (IKZF2) (setting [4]); 0.293 at CRBN and Helios (IKZF2) (setting [5]); 0.228 on CRBN and Helios (IKZF2) (setting [6]). For the same molecule, the “SALL4 ZNF1-2 GFP/RFP Relative Abundance” value at SALL4 ZNF1-2 (setting [1]) amounted to 0.855; at SALL4 ZNF1-2 (setting [2]), 0.869; on SALL4 ZNF1-2 (setting [3]), 0.787.
As for `O=C1CCC(N2C(=O)C=C(Nc3cnc4ccccc4c3)C2=O)C(=O)N1` (stereo not drawn) [Compound 27, 3-(2,5-dioxo-3-(quinolin-3-ylamino)-2,5-dihydro-1H-pyrrol-1-yl)piperidine-2,6-dione], the “IKZF1 GFP/RFP Relative Abundance” value is 0.701 at IKZF1 (setting [1]), 0.776 on IKZF1 (setting [2]) and 0.801 on IKZF1 (setting [3]). Also, the figures for the “IKZF2 GFP/RFP Relative Abundance” value in the test with IKZF2 (setting [1]), with IKZF2 (setting [2]) and in the test with IKZF2 (setting [3]) were 1.004, 0.990 and 0.931, respectively. The “GSPT1 GFP/RFP Relative Abundance” value at GSPT1 (setting [1]) stood at 0.881; on GSPT1 (setting [2]) it was 1.083; at GSPT1 (setting [3]), 0.987. Further, the “TR-FRET-IKZF2 (Normalized to CC-885)” value at CRBN and Helios (IKZF2) (setting [4]) was found to be 0.137; on CRBN and Helios (IKZF2) (setting [5]), 0.105; on CRBN and Helios (IKZF2) (setting [6]), 0.084. Also, the “SALL4 ZNF1-2 GFP/RFP Relative Abundance” value was found to be 1.026 on SALL4 ZNF1-2 (setting [1]), 1.005 at SALL4 ZNF1-2 (setting [2]) and 0.913 on SALL4 ZNF1-2 (setting [3]).
Turning to `CN(C1=CC(=O)N(C2CCC(=O)NC2=O)C1=O)c1ccccc1` (stereo not drawn) [Compound 28, 3-(3-(methyl(phenyl)amino)-2,5-dioxo-2,5-dihydro-1H-pyrrol-1-yl)piperidine-2,6-dione], the “IKZF1 GFP/RFP Relative Abundance” value worked out at 0.978 on IKZF1 (setting [1]), 0.996 at IKZF1 (setting [2]) and 1.029 at IKZF1 (setting [3]). Further, the “IKZF2 GFP/RFP Relative Abundance” value in the test on IKZF2 (setting [1]) is reported as 1.006; in the test on IKZF2 (setting [2]), 1.011; in the test with IKZF2 (setting [3]) it was 1.064. For the same molecule, the results for the “GSPT1 GFP/RFP Relative Abundance” value at GSPT1 (setting [1]), on GSPT1 (setting [2]) and on GSPT1 (setting [3]) were 1.001, 0.917 and 0.805, respectively. The “TR-FRET-IKZF2 (Normalized to CC-885)” value on CRBN and Helios (IKZF2) (setting [4]) was determined as 0.072; at CRBN and Helios (IKZF2) (setting [5]) it was 0.050; on CRBN and Helios (IKZF2) (setting [6]), 0.053. For the same molecule, the “SALL4 ZNF1-2 GFP/RFP Relative Abundance” value is recorded as 0.969 on SALL4 ZNF1-2 (setting [1]), 0.936 on SALL4 ZNF1-2 (setting [2]) and 0.946 on SALL4 ZNF1-2 (setting [3]).
As to `O=C1CCC(N2C(=O)C=C(Nc3ccc(-n4ccnc4)cc3)C2=O)C(=O)N1` (stereo not drawn) [Compound 29, 3-(3-((4-(1H-imidazol-1-yl)phenyl)amino)-2,5-dioxo-2,5-dihydro-1H-pyrrol-1-yl)piperidine-2,6-dione], the “IKZF1 GFP/RFP Relative Abundance” value at IKZF1 (setting [1]) came to 0.495; at IKZF1 (setting [2]), 0.516; at IKZF1 (setting [3]) it was 0.602. Besides, the “IKZF2 GFP/RFP Relative Abundance” value in the test with IKZF2 (setting [1]) came to 0.982; with IKZF2 (setting [2]), 1.005; in the test on IKZF2 (setting [3]), 0.942. The “GSPT1 GFP/RFP Relative Abundance” value is listed as 0.790 on GSPT1 (setting [1]), 0.913 at GSPT1 (setting [2]) and 0.729 on GSPT1 (setting [3]). For the same molecule, the “TR-FRET-IKZF2 (Normalized to CC-885)” value came out at 0.347 on CRBN and Helios (IKZF2) (setting [4]); 0.297 at CRBN and Helios (IKZF2) (setting [5]); 0.270 on CRBN and Helios (IKZF2) (setting [6]). Moreover, the “SALL4 ZNF1-2 GFP/RFP Relative Abundance” value worked out at 0.958 at SALL4 ZNF1-2 (setting [1]), 0.913 at SALL4 ZNF1-2 (setting [2]) and 0.908 on SALL4 ZNF1-2 (setting [3]).
With `CCOC(=O)c1cccc(NC2=CC(=O)N(C3CCC(=O)NC3=O)C2=O)c1` (stereo not drawn) [Compound 30, Ethyl 3-((1-(2,6-dioxopiperidin-3-yl)-2,5-dioxo-2,5-dihydro-1H-pyrrol-3-yl)amino)benzoate], the “IKZF1 GFP/RFP Relative Abundance” value is 0.388 on IKZF1 (setting [1]), 0.437 at IKZF1 (setting [2]) and 0.631 at IKZF1 (setting [3]). For the same molecule, the “IKZF2 GFP/RFP Relative Abundance” value in the test on IKZF2 (setting [1]) is on record as 0.916; in the test with IKZF2 (setting [2]), 0.928; in the test with IKZF2 (setting [3]), 0.979. For the same molecule, the “GSPT1 GFP/RFP Relative Abundance” value at GSPT1 (setting [1]) is 1.100; at GSPT1 (setting [2]), 1.129; on GSPT1 (setting [3]), 1.192. The “TR-FRET-IKZF2 (Normalized to CC-885)” value on CRBN and Helios (IKZF2) (setting [4]) is recorded as 0.386; at CRBN and Helios (IKZF2) (setting [5]) it was 0.324; on CRBN and Helios (IKZF2) (setting [6]) it was 0.228. Besides, the results for the “SALL4 ZNF1-2 GFP/RFP Relative Abundance” value at SALL4 ZNF1-2 (setting [1]), at SALL4 ZNF1-2 (setting [2]) and at SALL4 ZNF1-2 (setting [3]) were 0.815, 0.786 and 0.896, respectively.
For `O=C1CCC(N2C(=O)C=C(Nc3cccc(-c4cc[nH]n4)c3)C2=O)C(=O)N1` (stereo not drawn) [Compound 31, 3-(3-((3-(1H-pyrazol-3-yl)phenyl)amino)-2,5-dioxo-2,5-dihydro-1H-pyrrol-1-yl)piperidine-2,6-dione], the “IKZF1 GFP/RFP Relative Abundance” value is listed as 0.254 at IKZF1 (setting [1]), 0.290 at IKZF1 (setting [2]) and 0.399 on IKZF1 (setting [3]). The entries for the “IKZF2 GFP/RFP Relative Abundance” value with IKZF2 (setting [1]), in the test on IKZF2 (setting [2]) and with IKZF2 (setting [3]) were 0.494, 0.638 and 0.766, respectively. Also, the “GSPT1 GFP/RFP Relative Abundance” value came to 0.666 at GSPT1 (setting [1]), 1.197 at GSPT1 (setting [2]) and 1.240 on GSPT1 (setting [3]). In addition, the “TR-FRET-IKZF2 (Normalized to CC-885)” value on CRBN and Helios (IKZF2) (setting [4]) was found to be 0.628; on CRBN and Helios (IKZF2) (setting [5]), 0.521; on CRBN and Helios (IKZF2) (setting [6]), 0.434. The “SALL4 ZNF1-2 GFP/RFP Relative Abundance” value is on record as 0.755 on SALL4 ZNF1-2 (setting [1]), 0.626 on SALL4 ZNF1-2 (setting [2]) and 0.713 at SALL4 ZNF1-2 (setting [3]).
For the molecule `O=C1CCC(N2C(=O)C=C(Nc3ccc4cn[nH]c4c3)C2=O)C(=O)N1` (stereo not drawn) [Compound 32, 3-(3-((1H-indazol-6-yl)amino)-2,5-dioxo-2,5-dihydro-1H-pyrrol-1-yl)piperidine-2,6-dione], the “IKZF1 GFP/RFP Relative Abundance” value at IKZF1 (setting [1]) is listed as 0.748; on IKZF1 (setting [2]), 0.795; at IKZF1 (setting [3]) it was 0.832. The “IKZF2 GFP/RFP Relative Abundance” value is 1.008 in the test with IKZF2 (setting [1]), 0.941 with IKZF2 (setting [2]) and 0.958 in the test on IKZF2 (setting [3]). The “GSPT1 GFP/RFP Relative Abundance” value on GSPT1 (setting [1]) was 0.646; on GSPT1 (setting [2]), 0.855; on GSPT1 (setting [3]), 0.970. Also, the “TR-FRET-IKZF2 (Normalized to CC-885)” value was determined as 0.274 at CRBN and Helios (IKZF2) (setting [4]); 0.213 on CRBN and Helios (IKZF2) (setting [5]); 0.210 at CRBN and Helios (IKZF2) (setting [6]). Further, the results for the “SALL4 ZNF1-2 GFP/RFP Relative Abundance” value at SALL4 ZNF1-2 (setting [1]), at SALL4 ZNF1-2 (setting [2]) and at SALL4 ZNF1-2 (setting [3]) were 1.008, 0.889 and 0.901, respectively.
